Common to all, as to assay type: cell-based
One test relates to HIV strain r13024. Put plainly: Antiviral spectrum, protease inhibitor resistant strain. The following applies: Human immunodeficiency virus 1, strain r13024; L10I, M36I, L63P, A71V, G73S, I84V, L90M. How it is done:
(§1) HIV- or mock-infected MT4 cells were incubated for five days in the presence of various concentrations of the inhibitor. At the end of the incubation period, all HIV-infected cells have been killed by the replicating virus in the control cultures in the absence of any inhibitor. Cell viability is measured by measuring the concentration of MTT, a yellow, water soluble tetrazolium dye that is converted to a purple, water insoluble formazan in the mitochondria of living cells only. Upon solubilization of the resulting formazan crystals with isopropanol, the absorbance of the solution is monitored at 540 nm. The values correlate directly to the number of living cells remaining in the culture at the completion of the five day incubation. The inhibitory activity of the compound was monitored on the virus-infected cells and was expressed as IC50 and IC90. These values represent the amount of the compound required to protect 50% and 90%, respectively, of the cells from the cytopathogenic effect of the virus. The toxicity of the compound was measured on the mock-infected cells and was expressed as CC50, which represents the concentration of compound required to inhibit the growth of the cells by 50%. The select index (SI) (ratio CC50/IC50) is an indication of the selectivity of the anti-HIV activity of the inhibitor.
(§2) Because of the increasing emergence of drug resistant HIV strains, compound 13 and compound 14 were tested for its potency against HIV strains harbouring several mutations. These mutations are associated with resistance to protease inhibitors and result in viruses that show various degrees of phenotypic cross-resistance to five of the currently commercially available drugs (Saquinavir, Ritonavir, Nelfinavir, Indinavir and Amprenavir).

In the next test the test system is HIV strain r13029. The description is as above. The following applies: Human immunodeficiency virus 1, strain r13029; L10I/L, M36I, M46L, L63P, A71V, I84V, N88D, L90M. The method, then: as §1, §2
For another test, the system named is HIV strain r13021. Described as above. Particulars: L10I, K20R, L24I, M36I, I54V, L63P, A71V, V82T, I84V. How it is done:
as §1, §2

Another test deals with HIV strain r13027. The test is described as above. The following applies: Human immunodeficiency virus 1, strain r13027; L10M/I, K20R, M36I, L63P, A71V, G73S, V77I, I84V, L90M. The method, then:
as §1, §2

Another test relates to HIV strain r13031. Described as above. The following applies: Human immunodeficiency virus 1, strain r13031; G48V, I54V, V77I, V82A, L90M/L. The method, then:
as §1, §2

For a further test, the system named is HIV strain r13035. The description is as above. Particulars: Human immunodeficiency virus 1, strain r13035; D30N, L63P, V77I, N88D. The method, then: as §1, §2
Another test deals with HIV strain r13020. The test is described as above. The following applies: Human immunodeficiency virus 1, strain r13020; L10I, K20R, M36I, 154V, A71V, V82T, 184V. The method, then:
as §1, §2

Another test concerns HIV strain r13030. The description is as above. Particulars: Human immunodeficiency virus 1, strain r13030; L10V/I, M36I, I54V, L63P, A71V, V82T, L90M. How it is done:
as §1, §2

A further test relates to HIV strain r13026. The test is described as above. Particulars: Human immunodeficiency virus 1, strain r13026; L10I, M46I, I54V, L63P, A71V, V82T, I84V. The method, then:
as §1, §2

A further test concerns HIV strain r13037. The test is described as above. The following applies: Human immunodeficiency virus 1, strain r13037; L10I, M46I, I54V, L63P, A71T, V77I, V82A, L90M. How it is done: as §1, §2
Another test concerns HIV strain r13023. Described as above. The following applies: L10I, M36I/M, I54V/I, L63P, A71V, G73S, I84V, L90M. How it is done:
as §1, §2

The subject of a further test is HIV strain r13025. The test is described as above. Particulars: Human immunodeficiency virus 1, strain r13025; L10I, M46I, L63P, A71V, I84V. How it is done: as §1, §2
For a further test, the system named is HIV strain r13036. The test is described as above. The following applies: Human immunodeficiency virus 1, strain r13036; L10I, L63P, A71V, G73S, L90M. How it is done:
as §1, §2

Another test relates to HIV strain r13022. The description is as above. The following applies: Human immunodeficiency virus 1, strain r13022; K20R, M36I, M46I/M, 154V, L63P, A71V/I, V82T, L90M. The method, then: as §1, §2
The subject of another test is HIV strain r13034. The test is described as above. The following applies: Human immunodeficiency virus 1, strain r13034; L10I, M36I, I54V, L63P, A71V, I84V. How it is done: as §1, §2
The next test deals with HIV strain r13033. Described as above. The following applies: Human immunodeficiency virus 1, strain r13033; L10I, M46L, I54V, L63P, A71V, V82A, L90M. How it is done:
as §1, §2

In the next test the test system is HIV-1 strain LAI. Briefly: Cellular anti-HIV assay in MT4 cells (MTT). The method, then: as §1
Where [1] appears, read: Human immunodeficiency virus 1, strain r13021.
Where [2] appears, read: Human immunodeficiency virus 1, strain r13023.
Setting [3] is: Human immunodeficiency virus 1, MT4, strain LAI, read-out: IC50.

The record followed here is patent publication US7157495B2, “Hexahydrofuro[2,3-B]furan-3-YL-N-{3-[(1,3-benzodioxol-5-ylsulfonyl)(isobutyl)amino]-1-benzyl-2-hydroxypropyl}carbamate as retroviral protease inhibitor” (Tibotec Pharmaceuticals, Ltd., priority 1999, dated 2007).

Each structure is given as a SMILES string. Read-outs that look alike come from different tables or passages of the source.

A word on the IC50: it is the concentration at which inhibition is half-maximal. In the case of `CC(C)(C)NC(=O)[C@@H]1CN(Cc2cccnc2)CCN1C[C@@H](O)C[C@@H](Cc1ccccc1)C(=O)N[C@H]1c2ccccc2C[C@H]1O` [IND, Indinavir], the IC50 in the test with HIV strain r13024 is 1070 nM; with HIV strain r13029 it was 922 nM; in the test with HIV strain r13021 (setting [1]), 1750 nM; with HIV strain r13027, 714 nM; with HIV strain r13031 it was 154 nM; with HIV strain r13035, 7.4 nM. Also, the IC50 in the test on HIV strain r13020 was found to be 1380 nM; with HIV strain r13030, 574 nM; in the test with HIV strain r13026, 2720 nM; in the test on HIV strain r13037, 196 nM; in the test with HIV strain r13023 (setting [2]) it was 680 nM; with HIV strain r13025, 1250 nM. In addition, the IC50 with HIV strain r13036 was found to be 638 nM; in the test on HIV strain r13022, 1700 nM; in the test with HIV strain r13034, 638 nM; in the test with HIV strain r13033 it was 848 nM; in the test with HIV-1 strain LAI (setting [3]) it was 27.6 nM.

`CC(C)(C)NC(=O)[C@@H]1C[C@@H]2CCCC[C@@H]2CN1C[C@@H](O)[C@H](Cc1ccccc1)NC(=O)[C@H](CC(N)=O)NC(=O)c1ccc2ccccc2n1` [SAQ, Saquinavir]: the IC50 with HIV strain r13024 was 2090 nM; with HIV strain r13029 it was 2610 nM; with HIV strain r13021 (setting [1]), 1450 nM; in the test with HIV strain r13027, 2920 nM; in the test with HIV strain r13031, 673 nM; in the test with HIV strain r13035 it was 5.3 nM. Also, the concentration for half-maximal inhibition (IC50) in the test on HIV strain r13020 was 3510 nM; with HIV strain r13030, 173 nM; with HIV strain r13026, 1990 nM; in the test on HIV strain r13037, 27.4 nM; in the test on HIV strain r13023 (setting [2]) it was 783 nM; in the test with HIV strain r13025 it was 157 nM. Further, the half-inhibitory concentration (IC50) in the test with HIV strain r13036 was determined as 514 nM; with HIV strain r13022 it was 665 nM; in the test with HIV strain r13034, 1010 nM; in the test on HIV strain r13033 it was 52.1 nM; in the test on HIV-1 strain LAI (Human immunodeficiency virus 1, MT4) it was 7.9 nM.

On to `CC(C)CN(CC(O)C(Cc1ccccc1)NC(=O)OC1COC2OCCC12)S(=O)(=O)c1ccc2c(c1)OCO2` (stereo not shown) [Compound 14], for which the IC50 in the test with HIV strain r13024 came to 5.5 nM; with HIV strain r13029, 5.2 nM; with HIV strain r13021 (strain r13021) it was 1.5 nM; with HIV strain r13027, 7.3 nM; with HIV strain r13031, 0.3 nM; with HIV strain r13035, 0.2 nM. Besides, the IC50 in the test with HIV strain r13020 amounted to 0.8 nM; with HIV strain r13030 it was 0.2 nM; with HIV strain r13026, 0.8 nM; with HIV strain r13037, 0.5 nM; in the test on HIV strain r13023 (strain r13023) it was 2.8 nM; in the test with HIV strain r13025, 32.8 nM. For the same compound, the IC50 with HIV strain r13036 came out at 2.9 nM; in the test on HIV strain r13022, 1.1 nM; in the test with HIV strain r13034, 5.5 nM; with HIV strain r13033 it was 1.1 nM; with HIV-1 strain LAI (setting [3]), 0.8 nM.

With `Cc1c(O)cccc1C(=O)N[C@@H](CSc1ccccc1)[C@H](O)CN1C[C@H]2CCCC[C@H]2C[C@H]1C(=O)NC(C)(C)C` [NEL, Nelfinavir], the concentration for half-maximal inhibition (IC50) in the test with HIV strain r13024 came out at 3260 nM; in the test with HIV strain r13029 it was 3790 nM; with HIV strain r13021 (setting [1]), 4100 nM; with HIV strain r13027, 3200 nM; in the test with HIV strain r13031, 497 nM; with HIV strain r13035, 361 nM. Moreover, the IC50 in the test on HIV strain r13020 stood at 3750 nM; in the test on HIV strain r13030 it was 995 nM; in the test on HIV strain r13026, 1220 nM; in the test with HIV strain r13037 it was 656 nM; in the test with HIV strain r13023 (setting [2]), 1020 nM; in the test on HIV strain r13025 it was 9130 nM. Further, the IC50 with HIV strain r13036 came out at 3250 nM; in the test with HIV strain r13022, 4030 nM; in the test on HIV strain r13034, 1990 nM; in the test with HIV strain r13033, 1190 nM; in the test with HIV-1 strain LAI (setting [3]) it was 33.1 nM.

In the case of `CC(C)CN(C[C@@H](O)[C@H](Cc1ccccc1)NC(=O)O[C@H]1CCOC1)S(=O)(=O)c1ccc(N)cc1` [AMP, Amprenavir], the half-inhibitory concentration (IC50) with HIV strain r13024 worked out at 180 nM; in the test with HIV strain r13029, 214 nM; in the test on HIV strain r13021 (setting [1]) it was 212 nM; in the test on HIV strain r13027, 645 nM; in the test on HIV strain r13031 it was 34.1 nM; with HIV strain r13035, 10.5 nM. In addition, the IC50 in the test with HIV strain r13020 came to 107 nM; in the test with HIV strain r13030 it was 49.1 nM; in the test with HIV strain r13026, 136 nM; in the test with HIV strain r13037 it was 165 nM; in the test on HIV strain r13023 (setting [2]) it was 217 nM; with HIV strain r13025 it was 661 nM. The IC50 in the test with HIV strain r13036 was 445 nM; with HIV strain r13022 it was 181 nM; in the test with HIV strain r13034, 677 nM; in the test with HIV strain r13033, 194 nM; in the test on HIV-1 strain LAI (setting [3]) it was 35.9 nM.
